Assay results: patent US11673869B2, “4-oxazolidinone antimicrobial agents” (NORTH CAROLINA STATE UNIVERSITY, priority 2016, dated 2023)
Converted amounts (≈) assume the structure as drawn.

Assays:
[1] = tested on: MRSA (ATCC 33591) methicillin-resistant Staphylococcus aureus; experiment: Broth microdilution MIC determination, MRSA; assay type: cell-based; details: minimum inhibitory concentration, MRSA ATCC 33591, Mueller-Hinton broth, 37° C., recorded after 16 h; unit assumed
Method: (§1) Broth microdilution protocol for minimum inhibition concentration (MIC) determination. Fresh Mueller-Hinton broth (MHB) ˜3 ml, was inoculated (5×10^5 CFU mL^−1) with MRSA (ATCC 33591) methicillin-resistant Staphylococcus aureus. The resulting bacterial suspension was aliquoted (1 mL) into culture tubes and test compound (10 mM DMSO stock solution) was added to reach the final concentration of the interest. Bacteria not treated with the antimicrobial compound served as the control. Rows 2-12 of a 96-well microtiter plate were filled with remaining bacterial subcultures. The samples containing test compound were aliquoted (200 μL) into the first row wells of the microtiter plate (2 wells per compound). Row 1 wells were mixed 6-8 times and 100 μL was transferred down to row 2. Row 2 wells were mixed 6-8 times, followed by a 100 μL transfer from row 2 down to row 3. The rest of the rows of the plate were serially diluted in similar fashion. The plate was covered with sealing tape for 96-well plates (ThermoFisher) and incubated under stationary conditions at 37° C. A duplicate of the plate was prepared.
(§2) MIC values for vancomycin, linezolid, and tetracycline are included in Table 1 for purposes of comparison.

S. aureus = experiment: Broth microdilution MIC determination, S. aureus; assay type: cell-based, Staphylococcus aureus; details: minimum inhibitory concentration, recorded after 16 h, unit assumed
A. baumannii = experiment: Broth microdilution MIC determination, A. baumannii; assay type: cell-based, Acinetobacter baumannii; details: minimum inhibitory concentration, recorded after 16 h, unit assumed
Method: [The procedure below names another organism; the source lists this organism under the same test.] as §1, §2

Row | SMILES | MIC MRSA [1] [µg/mL] | MIC S. aureus (S. aureus) [µg/mL] | MIC A. baumannii (A. baumannii) [µg/mL]
1 | CCCCCCC/C(C)=C/C(=O)/C=C1\NC(=O)[C@H](CCCC)O1 [Compound 1, (S)-Lipoxazolidinone A] | 0.5 (≈ 1.56 µM) | 1 (≈ 3.11 µM) | > 50
2 | CCCCCCC/C(C)=C/C(=O)/C=C1\NC(=O)[C@@H](CCCC)O1 [Compound 2, (R)-Lipoxazolidinone A] | 1 (≈ 3.11 µM) | 4 (≈ 12.4 µM) | –
3 | CCCCCCC/C=C/C(=O)/C=C1\NC(=O)[C@H](CCCC)O1 [Compound 3, (S,E)-5-Butyl-2-((E)-2-oxoundec-3-en-1-ylidene)oxazolidin-4-one] | 0.125 (≈ 0.407 µM) | 0.5 (≈ 1.63 µM) | > 50
4 | CCCCCCCCCC(=O)/C=C1\NC(=O)[C@H](CCCC)O1 [Compound 4, (S,E)-5-Butyl-2-(2-oxoundecylidene)oxazolidin-4-one] | 0.25 (≈ 0.808 µM) | 2 (≈ 6.46 µM) | –
5 | CCCC[C@@H]1O/C(=C/C(=O)CCC)NC1=O [Compound 5, (S,E)-5-Butyl-2-(2-oxopentylidene)oxazolidin-4-one] | 16 (≈ 71 µM) | 16 (≈ 71 µM) | > 50
6 | CCCC[C@@H]1O/C(=C/C(C)=O)NC1=O [Compound 6, (S,E)-5-Butyl-2-(2-oxopropylidene)oxazolidin-4-one] | > 128 | 128 (≈ 649 µM) | –
7 | CCCCCCCCCCCCCCCC(=O)/C=C1\NC(=O)[C@H](CCCC)O1 [Compound 7, (S,E)-5-Butyl-2-(2-oxoheptadecylidene)oxazolidin-4-one] | 16 (≈ 40.6 µM) | 128 (≈ 325 µM) | –
8 | CCCCCCCCCC(=O)/C=C1\NC(=S)[C@H](CCCC)O1 [Compound 8, (S,E)-1-(5-butyl-4-thioxooxazolidin-2-ylidene)undecan-2-one] | 64 (≈ 197 µM) | 128 (≈ 393 µM) | –
9 | CCCCCCCCCC(=O)/C=C1\NC(=O)[C@H](CC(C)C)O1 [Compound 9, (S,E)-5-isobutyl-2-(2-oxoundecylidene)oxazolidin-4-one] | 0.0675 (≈ 0.218 µM) | 0.5 (≈ 1.62 µM) | > 128
10 | CCCCCCCCCC(=O)/C=C1\NC(=O)[C@H]([C@@H](C)CC)O1 [Compound 10, (S,E)-5-((S)-sec-butyl)-2-(2-oxoundecylidene)oxazolidin-4-one] | 0.0675 (≈ 0.218 µM) | 0.5 (≈ 1.62 µM) | > 128
11 | CCCCCCCCCC(=O)/C=C1\NC(=O)[C@H](C(C)C)O1 [Compound 11, (S,E)-5-isopropyl-2-(2-oxoundecylidene)oxazolidin-4-one] | 0.0338 (≈ 0.114 µM) | 0.5 (≈ 1.69 µM) | > 64
12 | CCCCCCCCCC(=O)/C=C1\NC(=O)[C@H](Cc2ccccc2)O1 [Compound 12, (S,E)-5-benzyl-2-(2-oxoundecylidene)oxazolidin-4-one] | 0.5 (≈ 1.46 µM) | 4 (≈ 11.6 µM) | –
13 | CCCCCCCCCC(=O)/C=C1\NC(=O)CO1 [Compound 13, (E)-2-(2-Oxoundecylidene)oxazolidin-4-one] | 2 (≈ 7.89 µM) | 4 (≈ 15.8 µM) | –
14 | CCCCCCCCCC(=O)/C=C1\NC(=O)[C@H](C)O1 [Compound 14, (S,E)-5-Methyl-2-(2-oxoundecylidene)oxazolidin-4-one] | 0.8 (≈ 2.99 µM) | 1 (≈ 3.74 µM) | –
15 | CCCCCCCCCC(=O)/C=C1\NC(=O)[C@H](c2ccccc2)O1 [Compound 15, (S,E)-2-(2-oxoundecylidene)-5-phenyloxazolidin-4-one] | 1 (≈ 3.04 µM) | 2 (≈ 6.07 µM) | > 128
16 | CC(C)[C@@H]1O/C(=C/C(=O)Cc2ccccc2)NC1=O [Compound 16, (S,E)-5-isopropyl-2-(2-oxo-3-phenylpropylidene)oxazolidin-4-one] | 2 (≈ 7.71 µM) | – | –
17 | CC(C)[C@@H]1O/C(=C/C(=O)C(c2ccccc2)c2ccccc2)NC1=O [Compound 17, (S,E)-5-isopropyl-2-(2-oxo-3,3-diphenylpropylidene)oxazolidin-4-one] | 0.5 (≈ 1.49 µM) | – | –
18 | COC(=O)CCCC(=O)/C=C1\NC(=O)[C@H](C(C)C)O1 [Compound 18, methyl (S,E)-6-(5-isopropyl-4-oxooxazolidin-2-ylidene)-5-oxohexanoate] | 32 (≈ 119 µM) | – | –
19 | C#CCCCCC(=O)/C=C1\NC(=O)[C@H](C(C)C)O1 [Compound 19, (S,E)-5-isopropyl-2-(2-oxooct-7-yn-1-ylidene)oxazolidin-4-one] | 16 (≈ 64.2 µM) | – | –
20 | CC(=O)/C=C1\NC(=O)[C@H](C)O1 [Compound 20, (S,E)-5-methyl-2-(2-oxopropylidene)oxazolidin-4-one] | > 128 | > 128 | –
21 | CCCCCCCCCC(=O)/C=C1\NC(=O)[C@H](C(C)(C)C)O1 [Compound 21, (S,E)-5-(tert-butyl)-2-(2-oxoundecylidene)oxazolidin-4-one] | 0.0675 (≈ 0.218 µM) | 0.5 (≈ 1.62 µM) | –
22 | CCCCCCCCCC(=O)/C=C1\NC(=O)[C@H](CC)O1 [Compound 22, (S,E)-5-ethyl-2-(2-oxoundecylidene)oxazolidin-4-one] | 1 (≈ 3.55 µM) | 2 (≈ 7.11 µM) | –
23 | CC(C)[C@@H]1O/C(=C/C(=O)Cc2ccc(-c3ccccc3)cc2)NC1=O [Compound 23, (S,E)-2-(3-([1,1′-biphenyl]-4-yl)-2-oxopropylidene)-5-isopropyloxazolidin-4-one] | 0.125 (≈ 0.373 µM) | 0.25 (≈ 0.745 µM) | –
24 | CC(C)[C@@H]1O/C(=C/C(=O)Cc2ccc(Br)cc2)NC1=O [Compound 24, (S,E)-2-(3-(4-bromophenyl)-2-oxopropylidene)-5-isopropyloxazolidin-4-one] | 0.5 (≈ 1.48 µM) | 1 (≈ 2.96 µM) | –
25 | CC(=O)NC[C@H]1CN(c2ccc(N3CCOCC3)c(F)c2)C(=O)O1 [linezolid, reference compound] | 1 (≈ 2.96 µM) | 0.5 (≈ 1.48 µM) | > 100
26 | CN(C)[C@@H]1C(O)=C(C(N)=O)C(=O)[C@@]2(O)C(O)=C3C(=O)c4c(O)cccc4[C@@](C)(O)[C@H]3C[C@@H]12 [tetracycline, reference compound] | – | 0.25 (≈ 0.563 µM) | 2 (≈ 4.5 µM)
27 | CN[C@H](CC(C)C)C(=O)N[C@H]1C(=O)N[C@@H](CC(N)=O)C(=O)N[C@H]2C(=O)N[C@H]3C(=O)N[C@H](C(=O)N[C@H](C(=O)O)c4cc(O)cc(O)c4-c4cc3ccc4O)[C@H](O)c3ccc(c(Cl)c3)Oc3cc2cc(c3O[C@@H]2O[C@H](CO)[C@@H](O)[C@H](O)[C@H]2O[C@H]2C[C@](C)(N)[C@H](O)[C@H](C)O2)Oc2ccc(cc2Cl)[C@H]1O [vancomycin, reference compound] | 1 (≈ 0.69 µM) | 1 (≈ 0.69 µM) | > 100
